# Tests used:
# [1] = test system: human breast cancer MDA-MB-231 xenograft; assay: in vivo metastasis mouse Model 1 (seeding and early colonization of circulating tumour cells); parameters: species or system mice; settings: 3.5 mg/kg intraperitoneally daily; MDA-MB-231
# Protocol: (§1) In all experiments, each compound was administered by intraperitoneally at 3.5 mg/kg.
# (§2) One model (Model 1) studied the effect of the compound's ability to inhibit the seeding and early colonization of circulating tumour cells at distal sites, most commonly in the lungs and liver. Human tumour cell lines were injected into the bloodstream of recipient mice, followed by single daily intraperitoneal injections of the compound (3.5 mg/kg in 1% DMSO) for 10 consecutive days. Tumour burden was monitored longitudinally for up to 8 weeks in vivo by live luminescence imaging, and subsequently histology performed on affected organs at the end of the experiment.
# as §2, with “Model 1 tested” for “One model (Model 1) studied”, “Bcl3i compounds” for “the compound's ability”, “Bcl3 inhibitor” for “the compound”
# The X axis represents the number of days after xenograft and the Y axis is the relative luminescence of the thoracic region by Xenon IVIS scanning of mice following injection of d-luciferin for 10 minutes.
# (§3) MDA-MB-231 human breast cancer cells were used in each of the three xenograft models of metastatic breast cancer.
# [2] = test system: human breast cancer (MDA-MB-231); assay: mouse Model 4 (tumour growth at transplantation site), MDA-MB-231; type: in vivo, mice; settings: 3.5 mg/kg intraperitoneal injection daily; MDA-MB-231 subcutaneous; caliper tumour volume; listed as compound 12
# Protocol: as §1
# (§4) Another model (Model 4) studied the effect of the compound's ability to inhibit the growth of tumour cells at the transplantation site. Human tumour cell lines were injected subcutaneously into recipient mice, followed 2 days later by single daily intraperitoneal injections of a compound (3.5 mg/kg in 1% DMSO) for the entire course of the experiment. Tumour burden was monitored longitudinally for up to 12 weeks in vivo by palpation and caliper measurements of tumour volume, and subsequently histology performed on tumours at the end of the experiment.
# (§5) Model 4 tested the effect of compounds of the application to inhibit the growth of tumour cells at the transplantation site. Human tumour cell lines were injected subcutaneously into recipient mice, followed 2 days later by single daily intraperitoneal injections of Bcl3 inhibitor (3.5 mg/kg in 1% DMSO) for the entire course of the experiment. Tumour burden was monitored longitudinally for up to 12 weeks in vivo by palpation and caliper measurements of tumour volume, and subsequently histology performed on tumours at the end of the experiment.
# FIGS. 6 and 7 show the comparative effect of compound 12 (3.5 mg/kg intraperitoneal injection) on Model 4 in human breast cancer (MDA-MB-231) and human colorectal cell lines (SW480), respectively. […]
# [3] = test system: human colorectal cell lines (SW480); assay: mouse Model 4 (tumour growth at transplantation site), SW480; type: in vivo, mice; settings: 3.5 mg/kg intraperitoneal injection daily; SW480 subcutaneous; caliper tumour volume
# Protocol: as §1, §4, §5
# FIGS. 6 and 7 show the comparative effect of compound 12 (3.5 mg/kg intraperitoneal injection) on Model 4 in human breast cancer (MDA-MB-231) and human colorectal cell lines (SW480), respectively.
# [4] = test system: MDA-MB-231 human breast cancer cells; assay: mouse Model 2 (colonization, growth and spread of secondary lesions at distal sites); type: in vivo, mice; settings: 3.5 mg/kg intraperitoneally daily
# Protocol: as §1
# Another model (Model 2) tested the effect of the compound's ability to inhibit the colonization and subsequent growth and spread of secondary lesions at distal sites. Human tumour cell lines were injected into the bloodstream of recipient mice, followed 2 days later by single daily intraperitoneal injections of the compound (3.5 mg/kg in 1% DMSO) for the entire course of the experiment. Tumour burden was monitored longitudinally for up to 8 weeks in vivo by live luminescence imaging, and subsequently histology performed on affected organs at the end of the experiment.
# as §3
smiles,measurement,setting,value
"COc1ccc(C(=O)Nc2ccccc2C(=O)NCCN2CCOCC2)c(F)c1 [Compound 12, 2-fluoro-4-methoxy-N-(2-((2-morpholinoethyl)carbamoyl)phenyl) benzamide]",effect on tumour cell seeding at distal sites (FIG. 8),[1],most profound effect
same,tumour growth at the transplantation (xenograft) site,[2],significant reductions in average tumour growth
same,average tumour growth at the transplantation site,[3],significant reductions in average tumour growth
same,effect on subsequent growth and spread of the secondary tumours (FIG. 9),[4],significant effects

# Source: patent US10273218B2, “BCL-3 inhibitors” (University College Cardiff Consultants Limited, priority 2014, dated 2019)
